In brackets after ≈: the same amount, converted by molar mass.
Key:
[1] = tested on: Radical scavenging activity; assay: Antioxidant activity assessed as DPPH radical scavenging activity at 0.1 mg/mL; assay type: functional
Tyrosinase = molecular target: T1, Tyrosinase (Agaricus bisporus, UniProt O42713)
T1 sequence (O42713 whole entry): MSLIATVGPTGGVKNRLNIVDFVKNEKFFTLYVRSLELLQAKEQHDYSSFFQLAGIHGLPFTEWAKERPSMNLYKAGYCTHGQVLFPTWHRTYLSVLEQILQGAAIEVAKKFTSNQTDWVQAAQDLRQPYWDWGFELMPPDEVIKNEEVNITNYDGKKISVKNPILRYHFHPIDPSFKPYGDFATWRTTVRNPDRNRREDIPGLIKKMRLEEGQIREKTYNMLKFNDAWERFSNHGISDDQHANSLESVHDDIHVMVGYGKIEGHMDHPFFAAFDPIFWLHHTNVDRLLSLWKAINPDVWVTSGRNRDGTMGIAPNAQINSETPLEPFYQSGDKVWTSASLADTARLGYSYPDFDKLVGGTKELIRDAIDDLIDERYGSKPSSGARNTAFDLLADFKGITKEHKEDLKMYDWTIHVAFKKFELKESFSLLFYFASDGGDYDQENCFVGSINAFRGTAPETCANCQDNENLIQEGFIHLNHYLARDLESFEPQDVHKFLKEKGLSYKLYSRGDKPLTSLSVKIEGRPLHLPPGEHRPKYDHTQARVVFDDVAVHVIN
Description: Inhibition of mushroom tyrosinase by spectrophotometry

[2] = tested on: Radical scavenging activity; assay: Antioxidant activity assessed as DPPH radical scavenging activity; assay type: functional

IC50 (Tyrosinase) [mM]	SMILES	Activity [1] [%]	other results
–	O=c1c(O)c(-c2ccc(O)cc2)oc2cc(O)cc(O)c12	86.5	–
0.26	CC1=C(C=O)C(C)(C)[C@@H](O)[C@H](O)C1 [CROCUSATIN K]	–	–
1	CC1=C(CO)C(C)(C)CC(=O)C1O (configuration not stated) [CROCUSATIN L]	–	–
–	O=C(O)c1ccc(O)c(O)c1	89.9	–
1.1	CC1=CC(=O)CC(C)(C)C1O (configuration not stated)	–	–
–	O=c1c(O)c(-c2ccc(O)cc2)oc2cc(O[C@@H]3O[C@H](CO)[C@@H](O)[C@H](O)[C@H]3O)cc(O)c12	91.2	–
–	Cc1c(C)c2c(c(C)c1O)CC[C@@](C)(CCC[C@H](C)CCC[C@H](C)CCCC(C)C)O2 [ALPHA-TOCOPHEROL]	–	IC50 [2]: 0.15 mg/mL (≈ 348 µM)

Reference: ChEMBL document CHEMBL1146507, “Antityrosinase principles and constituents of the petals of Crocus sativus” (J Nat Prod, 2004)
